This note sets out measurements from patent US5053070A, “Pyrimidine derivatives, preparation processes thereof, herbicide containing the same, and herbicidal compositions containing the same along with other active ingredient” (Mitsui Toatsu Chemicals, Incorporated, priority 1988, dated 1991).

The test system of series [1] is ALS (acetolactate syntase). Nature of the series: ALS enzyme assay (Test 1). It is filed as biochemical, pea. The following applies: 1,000 ppm (0.5 mg/0.5 ml). The method, boiled down: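 Partially purified ALS from dark-grown pea and barnyardgrass seedlings incubated 1 h at 30° C with pyruvate, TPP, MgCl2 and FAD. Compounds tested at 1,000 ppm (0.5 mg/0.5 ml). Acetoin formed detected colorimetrically at 525 nm via creatine/α-naphthol, relative to blank and acid-stopped controls.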

A further series relates to barnyardgrass. Nature of the series: Upland soil application test (Test 2). In kind it is in vivo. The settings on record: 30 g ai/a, soil spray before emergence, 30 days later. The method, boiled down:
(§1)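 Damage was graded 30 days after treatment by comparing air-dried plant weight with that of plants in untreated pots. Test compound, given as a diluted wettable powder, had been sprayed on the soil surface one day after sowing, before any weeds emerged.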

A further series concerns common lambsquarters. Nature of the series: Upland soil application test (Test 2). In kind it is in vivo. The following applies: 30 g ai/a, soil spray before emergence, 30 days later. The method, boiled down: as §1
A further series deals with foxtail meadow. Briefly: Upland soil application test (Test 2). In kind it is in vivo. The following applies: 30 g ai/a, soil spray before emergence, 30 days later. The method, boiled down: as §1
For series [2], the system named is green foxtail. Briefly: Upland soil application test (Test 2). In kind it is in vivo. The following applies: 30 g ai/a, soil spray before emergence, 30 days later. In short, it runs like this: as §1
For series [3], the system named is johnsongrass. Nature of the series: Upland soil application test (Test 2). It is filed as in vivo. The settings on record: 30 g ai/a, soil spray before emergence, 30 days later. In short, it runs like this:
as §1

The next series concerns large crabgrass. Briefly: Upland soil application test (Test 2). In kind it is in vivo. The following applies: 30 g ai/a, soil spray before emergence, 30 days later. In short, it runs like this: as §1
Another series deals with redroot pigweed. Briefly: Upland soil application test (Test 2). In kind it is in vivo. The settings on record: 30 g ai/a, soil spray before emergence, 30 days later. The method, boiled down: as §1
For series [4], the system named is cotton. Nature of the series: Upland soil application test (Test 2), crop injury. It is filed as in vivo. The settings on record: 30 g ai/a, soil spray before emergence, 30 days later. The method, boiled down:
(§2)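 Steps: fill pots with fertilized upland field soil containing uniformly mixed weed seed; sow crops and cover with 2-3 cm soil; after one day, spray the diluted wettable powder evenly over the soil at 10 l per are; assess at 30 days against untreated controls by dry weight.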

The test system of another series is peanut. Briefly: Upland soil application test (Test 2), crop injury. The settings on record: 30 g ai/a, soil spray before emergence, 30 days later. In kind it is in vivo. The method, boiled down:
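Soil-surface application of water-diluted wettable powder at 10 l per are, made one day after seeding and ahead of weed emergence. Plants stayed in the greenhouse for 30 days; injury was rated by air-dried weight versus untreated pots.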

Series [5] has as its system soybean. Nature of the series: Upland soil application test (Test 2), crop injury. In kind it is in vivo. The settings on record: 30 g ai/a, soil spray before emergence, 30 days later. In short, it runs like this:
as §2

For series [6], the system named is cotton. Nature of the series: Upland foliar application test (Test 3), crop injury. In kind it is in vivo. The following applies: 30 g ai/a, foliar spray at 2-3 leaves, 30th day. The method, boiled down:
(§3)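 Steps: sow in upland soil, greenhouse; grow to 2-3 leaf stage; spray leaves with water-diluted emulsion at 5 l per are using a ULV sprayer; assess effects on day 30.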

The test system of series [7] is soybean. The description is as above. It is filed as in vivo. The following applies: 30 g ai/a, foliar spray at 2-3 leaves, 30th day. In short, it runs like this:
as §3

Series [8] concerns green foxtail. Briefly: Upland foliar application test by mixed formulations (Test 7). In kind it is in vivo. The following applies: applied alone, 30th day. The method, boiled down: (§4)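 Foliar spray of two-compound mixed emulsion, diluted with water, at 5 l per are via ULV sprayer onto weeds at 2–3 leaf stage in upland soil pots, greenhouse. Effect observed 30 days after spraying. Measured mixture activity (Ea) compared with Colby expected value (Ec) derived from single-ingredient growth inhibition rates.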

Series [9] relates to johnsongrass. The description is as above. In kind it is in vivo. The following applies: Sorghum halepense, 720 h, applied alone, 30th day, read-out: Herbicidal effects (%) Johnsongrass Ea; for pest or weed control at 300 g/ha: 0.3 kg/ha. In short, it runs like this: as §4
The next series concerns morningglories. Described as above. In kind it is in vivo. The settings on record: Ipomoea, 720 h, applied alone, 30th day, read-out: Herbicidal effects (%) Morningglory Ea; for pest or weed control at 300 g/ha: 0.3 kg/ha. In short, it runs like this: as §4
[10] abbreviates: Setaria viridis, 720 h, 0.3 kg/ha, read-out: Herbicidal effects (%) Green foxtail Ea.

Consider `COc1cc(OC)nc(Oc2ccccc2C=NOCC=Cc2ccc(Cl)cc2Cl)n1` [compound 30], for which, in [1], the “Inhibitory activity (%) Pea” value is 6%. Also, in the series with barnyardgrass, the “Herbicidal effects Barnyardgrass” value is recorded as 5 (0-5 (Death)). For the same compound, the “Herbicidal effects Common lambsquarters” value with common lambsquarters was 4 (6-10 (Severe damages)). Also, the “Herbicidal effects Foxtail meadow” value with foxtail meadow is recorded as 5 (0-5 (Death)). In the series with green foxtail [2], the “Herbicidal effects Green foxtail” value is 5 (0-5 (Death)). The “Herbicidal effects Johnsongrass” value with johnsongrass [3] is given as 5 (0-5 (Death)). Further, the “Herbicidal effects Large crabgrass” value in the series on large crabgrass is 5 (0-5 (Death)). In the series on redroot pigweed, the “Herbicidal effects Redroot pigweed” value is listed as 5 (0-5 (Death)). The “Injury Cotton” value with cotton [4] and with cotton [6] was 0 (91-100 (No damages)) throughout. In addition, the “Injury Peanut” value in the series with peanut was 0 (91-100 (No damages)). For the same compound, the “Injury Soybean” value in the series with soybean [5] and in the series with soybean [7] was 0 (91-100 (No damages)) in each case. In addition, the results for the pest or weed control at 300 g/ha with green foxtail [8] (setting [10]), with johnsongrass [9] and with morningglories were 20%, 10% and 0%, respectively. Besides, in the series on green foxtail [8] (0.3 kg/ha), the “Herbicidal effects (%) Green foxtail Ea” value came out at 20%.
For the compound `COc1cc(OC)nc(Oc2ccccc2C=NOCC=Cc2ccccc2C(F)(F)F)n1` [compound 32], the “Inhibitory activity (%) Pea” value in series [1] came to 0%. The “Herbicidal effects Barnyardgrass” value in the series on barnyardgrass was 5 (0-5 (Death)). For the same compound, in the series with common lambsquarters, the “Herbicidal effects Common lambsquarters” value was 4 (6-10 (Severe damages)). In addition, the “Herbicidal effects Foxtail meadow” value in the series with foxtail meadow is 5 (0-5 (Death)). Further, the “Herbicidal effects Green foxtail” value with green foxtail [2] was 5 (0-5 (Death)). Besides, in the series on johnsongrass [3], the “Herbicidal effects Johnsongrass” value is given as 5 (0-5 (Death)). Besides, the “Herbicidal effects Large crabgrass” value in the series on large crabgrass is 5 (0-5 (Death)). Moreover, the “Herbicidal effects Redroot pigweed” value with redroot pigweed is 5 (0-5 (Death)). The “Injury Cotton” value in the series on cotton [4] and with cotton [6] was 0 (91-100 (No damages)) throughout. The “Injury Peanut” value in the series with peanut is given as 0 (91-100 (No damages)). The “Injury Soybean” value in the series with soybean [5] and with soybean [7] was 0 (91-100 (No damages)) throughout. In addition, the pest or weed control at 1000 g/ha in the series with green foxtail [8] (Setaria viridis, 720 h, 1 kg/ha, read-out: Herbicidal effects (%) Green foxtail Ea) came out at 30%; in the series on johnsongrass [9] (1 kg/ha) it was 30%; in the series on morningglories (1 kg/ha) it was 0%.
For `COc1cccc(C=CCON=Cc2ccccc2Oc2nc(OC)cc(OC)n2)c1` [compound 38], the “Inhibitory activity (%) Pea” value in series [1] was determined as 0%. For the same compound, the “Herbicidal effects Barnyardgrass” value with barnyardgrass is given as 5 (0-5 (Death)). Besides, the “Herbicidal effects Common lambsquarters” value in the series on common lambsquarters is recorded as 4 (6-10 (Severe damages)). For the same compound, in the series with foxtail meadow, the “Herbicidal effects Foxtail meadow” value was 4 (6-10 (Severe damages)). Besides, the “Herbicidal effects Green foxtail” value in the series with green foxtail [2] was 5 (0-5 (Death)). Moreover, in the series with johnsongrass [3], the “Herbicidal effects Johnsongrass” value is reported as 5 (0-5 (Death)). The “Herbicidal effects Large crabgrass” value in the series with large crabgrass is given as 5 (0-5 (Death)). Also, the “Herbicidal effects Redroot pigweed” value in the series with redroot pigweed is 4 (6-10 (Severe damages)). In addition, the “Injury Cotton” value in the series with cotton [4] and with cotton [6] was 0 (91-100 (No damages)) in each case. Besides, the “Injury Peanut” value with peanut is on record as 0 (91-100 (No damages)). The “Injury Soybean” value in the series on soybean [5] and with soybean [7] was 0 (91-100 (No damages)) each time. Further, the pest or weed control at 300 g/ha was determined as 40% with green foxtail [8] (setting [10]), 40% in the series with johnsongrass [9] and 10% with morningglories.
`COc1cc(OC)nc(Oc2ccccc2C=NOCC#Cc2ccccc2)n1` [compound 42]: in series [1], the “Inhibitory activity (%) Pea” value was 0%. The “Herbicidal effects Barnyardgrass” value with barnyardgrass is reported as 5 (0-5 (Death)). Moreover, in the series on common lambsquarters, the “Herbicidal effects Common lambsquarters” value is on record as 4 (6-10 (Severe damages)). Further, in the series on foxtail meadow, the “Herbicidal effects Foxtail meadow” value is recorded as 5 (0-5 (Death)). Besides, the “Herbicidal effects Green foxtail” value with green foxtail [2] is on record as 5 (0-5 (Death)). The “Herbicidal effects Johnsongrass” value in the series on johnsongrass [3] was 5 (0-5 (Death)). Further, in the series on large crabgrass, the “Herbicidal effects Large crabgrass” value is listed as 4 (6-10 (Severe damages)). For the same compound, in the series on redroot pigweed, the “Herbicidal effects Redroot pigweed” value is recorded as 3 (11-40 (Medium damages)). Besides, the “Injury Cotton” value in the series on cotton [4] and in the series with cotton [6] was 0 (91-100 (No damages)) throughout. The “Injury Peanut” value with peanut was 0 (91-100 (No damages)). The “Injury Soybean” value with soybean [5] and in the series with soybean [7] was 0 (91-100 (No damages)) in each case. Moreover, the pest or weed control at 300 g/ha in the series with green foxtail [8] (setting [10]) turned out to be 50%; with johnsongrass [9], 50%; with morningglories it was 10%.
